Results as given in patent US20230210984A1, “ADOPTIVE IMMUNOTHERAPY” (The Council of the Queensland Institute of Medical Research, priority 2019, published 2023).

Key:
SNU719 and C666.1 cells [1] = test: Flow cytometry of Ki67 and active Caspase 3 after individual and dual treatment; assay type: cell-based; details: dual treatment with HLA matched T cells vs individual treatment, 16 hours
Description: FIG. 11: Impact of dual combination of MEK1/2 inhibitor and HLA matched allogeneic EBV specific T cells. (A) Cell growth curve highlight the rate of cellular proliferation of SNU719 (upper panel) and C666.1 (lower panel) observed in the presence of HLA-matched EBV specific T cells (effector-to-target ratio of 25:1) and selumatinib (1 μM) individually and in combination, measured using Xcellegence. The effect of individual and dual combination on (B) cell proliferation based on Ki67 and (C) cell death based on active Caspase-3 of SNU719 expression (upper panel) and C666.1 (lower panel), performed using flow cytometry. The data are represented as the mean±SD from three independent experiments. P-values were calculated using one-way ANOVA: ns=not significant, *p<0.05, **p<0.01, ***p<0.001 and ****p<0.0001.
FIG. 15: Impact of dual combination of JQ1 inhibitor and HLA matched allogeneic EBV-specific T cells. The cell viability measured by MTS assay highlighting the impact of a HLA-matched EBV specific T cells at the effector-to-target ratio of 25:1 and JQ1 (2.5 μM) in suppressing cellular growth individually and in combination after 48 hrs of incubation with indicated (A) gastric (SNU719, YCCLE1 (upper panel)) and nasopharyngeal cancer cells (C17, C666.1 (lower panel)). (B) Cell growth curve highlight the rate of cellular proliferation of SNU719 (upper panel) and C666.1 (lower panel) observed in the presence of HLA-matched EBV specific T cells (effector-to-target ratio of 25:1) and JQ1 (2.5 μM) individually and in combination, measured using Xcellegence. The effect of individual and dual combination on (C) cell proliferation based on Ki67 and (D) cell death based on active Caspase-3 of SNU719 expression (upper panel) and C666.1 (lower panel), performed using flow cytometry. The data are represented as the mean±SD from three independent experiments. P-values were calculated using one-way ANOVA: ns=not significant, *p<0.05, **p<0.01, ***p<0.001 and ****p<0.0001.
Further, to validate the impact of the combination on the cell proliferation of the EBV-associated cancer cells, we challenged SNU719 and C666.1 cells with individual and dual combination using Xcellegence. […] We also performed phenotypic characterization, using flow cytometry, of SNU719 and C666.1 cells after 16 hours of individual and dual treatment in vitro.
Similarly, we targeted MYC-dependent cancer intrinsic pathway using JQ1 inhibitor by first determining the IC50 value of the inhibitor across nasopharyngeal and gastric cancer cell lines (with drug concertation ranging from 0.5 μM-10 μM). […]

SNU719 and C666.1 cells [2] = test: Flow cytometry of cancer cell intrinsic pathways and immune regulatory molecules; assay type: cell-based; details: 16 hours, JQ1 2.5 μM; for MHC-Class I expression: inhibitor alone and in combination with HLA-matched T cells; for MHC-Class I expression / MYC expression / pERK1/2 expression / pSTAT3 expression: selumatinib 1 μM
Description: FIG. 13: Phenotyping the impact of dual combination of MEK1/2 inhibitor and HLA matched allogeneic EBV specific T coils on cancer cell intrinsic pathways. Representation of the cancer cell phenotype after 16 hours of individual and dual combination of selumatinib (1 μM) and HLA-matched EBV specific T cells (effector-to-target ratio of 25:1) among SNU719 (upper panel) and C666.1 (lower panel) on the expression of (A) pERK1/2; (B) MHC-Class I; (C) pSTAT3; and (D) MYC performed using flow cytometry. The data are represented as the mean±SD from three independent experiments. P-values were calculated using one-way ANOVA: ns=not significant, *p<0.05, **p<0.01, ***p<0.001 and ****p<0.0001.
FIG. 17: Phenotyping the impact of dual combination of JQ1 inhibitor and MLA matched allogeneic EBV-specific T cells on cancer cell intrinsic pathways. Representation of the cancer cell phenotype after 16 hours of individual and dual combination of JQ1 (2.5 μM) and HLA-matched EBV specific T cells (effector-to-target ratio of 25:1) among SNU719 (upper panel) and C666.1 (lower panel) on the expression of (A) MYC; (B) pERK1/2; (C) pAKT; and (D) pSTAT3 performed using flow cytometry. The data are represented as the mean±SD from three independent experiments. P-values were calculated using one-way ANOVA: ns=not significant, *p<0.05, **p<0.01, ***p<0.001 and ****p<0.0001.
FIG. 18: Phenotyping the impact of dual combination of JQ1 inhibitor and HLA matched allogeneic EBV specific T cells on immune regulatory molecules. Representation of the cancer cell phenotype after 16 hours of individual and dual combination of JQ1 (2.5 μM) and HLA-matched EBV specific T cells (effector-to-target ratio of 25:1) among SNU719 (upper panel) and C666.1 (lower panel) on the expression of (A) MHC Class-I; (B) PD-L1; and (C) CD47 performed using flow cytometry. The data are represented as the mean±SD from three independent experiments. P-values were calculated using one-way ANOVA: ns=not significant, *p<0.05, **p<0.01, ***p<0.001 and ****p<0.0001.
In next set of experiments, we wanted to investigate the effect of the dual combination the cancer cell intrinsic pathway and describe the rationale of the effective combination of MEK1/2 inhibition with T cell treatment. […] As a result, we observed upregulation of MHC-Class I expression in presence of selumatinib alone and in combination with respective HLA-matched T cells (FIG. 13B). […] Thus, inhibition of MEK1/2 pathway results in upregulation of MHC-class I expression via upregulation of STAT3 pathway and downregulation of MYC which enabling better therapeutic compatibility in presence of HLA-matched allogeneic T cells.
Next, we wanted to determine the specificity of the combination and as such we challenged SNU719 and C666.1 cells with HLA-mismatch allogeneic T cells alongside JQ1 inhibitor individually and in combination. […] In next set of experiments, we wanted to investigate rationale of the effective combination of JQ1 inhibition with T cell treatment. […] As a result, it caused downregulation of pERK1/2, pAKT and pSTAT3 expression (FIG. 17B-C).

For `Cn1cnc2c(F)c(Nc3ccc(Br)cc3Cl)c(C(=O)NOCCO)cc21` [selumetanib], the “cell death (Active Caspase 3 staining)” value (SNU719 and C666.1 cells [1]) was “significant cell death”, the “cell proliferation (Ki67+ staining)” value (SNU719 and C666.1 cells [1]) was “significant loss of cell proliferation” and the “MHC-Class I expression” value (SNU719 and C666.1 cells [2]) was “upregulation”. The MYC expression (SNU719 and C666.1 cells [2]) was “downregulation”, the pERK1/2 expression (SNU719 and C666.1 cells [2]) was “significant reduction” and the pSTAT3 expression (SNU719 and C666.1 cells [2]) was “upregulation”.
For `Cc1sc2c(c1C)C(c1ccc(Cl)cc1)=N[C@@H](CC(=O)OC(C)(C)C)c1nnc(C)n1-2` [JQ1], the “cell death (Active Caspase 3 staining)” value (SNU719 and C666.1 cells [1]) was “significant cell death”, the “cell proliferation (Ki67+ staining)” value (SNU719 and C666.1 cells [1]) was “significant loss of cell proliferation” and the CD47 expression (SNU719 and C666.1 cells [2]) was “downregulation”. For the same compound, the PD-L1 expression (SNU719 and C666.1 cells [2]) was “downregulation”, the pAKT expression (SNU719 and C666.1 cells [2]) was “downregulation” and the “MHC-Class I expression” value (SNU719 and C666.1 cells [2]) was “enhancing”. For the same compound, the MYC expression (SNU719 and C666.1 cells [2]) was “significant reduction”, the pERK1/2 expression (SNU719 and C666.1 cells [2]) was “downregulation” and the pSTAT3 expression (SNU719 and C666.1 cells [2]) was “downregulation”.
